Data: patent US5169836A, “Inhibitors of platelet binding” (Trustees of the University of Penna., priority 1988, dated 1992)
Where no end group is shown, it is not given here.

Legend:
[1] = target: T1, glycoprotein IIb-IIIa on activated platelets (Homo sapiens, UniProt P05106+P08514); assay: Binding of FITC-PAC1 to activated gel-filtered platelets, flow cytometry; settings: for effect on FITC-PAC1 binding: platelets activated with ADP and epinephrine (10 μM each), peptide 0-100 μM
T1 construct: Venous blood from normal donors was drawn; endogenous in cells
T1 sequence (P08514 32-887 limits assumed): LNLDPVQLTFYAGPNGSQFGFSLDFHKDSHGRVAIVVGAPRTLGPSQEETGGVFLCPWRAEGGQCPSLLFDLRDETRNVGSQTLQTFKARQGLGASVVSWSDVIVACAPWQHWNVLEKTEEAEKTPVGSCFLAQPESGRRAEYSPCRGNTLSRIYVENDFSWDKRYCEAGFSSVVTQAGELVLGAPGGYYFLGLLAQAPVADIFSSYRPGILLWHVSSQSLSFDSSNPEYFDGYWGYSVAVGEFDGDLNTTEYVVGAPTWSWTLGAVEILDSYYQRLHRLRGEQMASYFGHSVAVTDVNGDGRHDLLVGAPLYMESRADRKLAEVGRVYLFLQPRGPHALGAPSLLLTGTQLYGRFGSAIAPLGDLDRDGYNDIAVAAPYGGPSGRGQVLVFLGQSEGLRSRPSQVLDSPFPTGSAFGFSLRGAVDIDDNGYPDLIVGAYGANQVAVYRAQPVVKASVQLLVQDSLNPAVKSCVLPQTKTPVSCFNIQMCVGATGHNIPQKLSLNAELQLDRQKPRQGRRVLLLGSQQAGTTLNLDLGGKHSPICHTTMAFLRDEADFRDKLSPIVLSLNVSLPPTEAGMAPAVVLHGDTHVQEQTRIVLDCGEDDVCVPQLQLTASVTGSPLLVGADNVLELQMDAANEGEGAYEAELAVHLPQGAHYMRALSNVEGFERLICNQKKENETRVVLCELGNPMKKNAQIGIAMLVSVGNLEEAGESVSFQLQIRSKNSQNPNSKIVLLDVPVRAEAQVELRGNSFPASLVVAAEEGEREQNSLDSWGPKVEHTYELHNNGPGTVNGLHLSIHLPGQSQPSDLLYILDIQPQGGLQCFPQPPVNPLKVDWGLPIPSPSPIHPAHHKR
T1 sequence (P05106 27-788): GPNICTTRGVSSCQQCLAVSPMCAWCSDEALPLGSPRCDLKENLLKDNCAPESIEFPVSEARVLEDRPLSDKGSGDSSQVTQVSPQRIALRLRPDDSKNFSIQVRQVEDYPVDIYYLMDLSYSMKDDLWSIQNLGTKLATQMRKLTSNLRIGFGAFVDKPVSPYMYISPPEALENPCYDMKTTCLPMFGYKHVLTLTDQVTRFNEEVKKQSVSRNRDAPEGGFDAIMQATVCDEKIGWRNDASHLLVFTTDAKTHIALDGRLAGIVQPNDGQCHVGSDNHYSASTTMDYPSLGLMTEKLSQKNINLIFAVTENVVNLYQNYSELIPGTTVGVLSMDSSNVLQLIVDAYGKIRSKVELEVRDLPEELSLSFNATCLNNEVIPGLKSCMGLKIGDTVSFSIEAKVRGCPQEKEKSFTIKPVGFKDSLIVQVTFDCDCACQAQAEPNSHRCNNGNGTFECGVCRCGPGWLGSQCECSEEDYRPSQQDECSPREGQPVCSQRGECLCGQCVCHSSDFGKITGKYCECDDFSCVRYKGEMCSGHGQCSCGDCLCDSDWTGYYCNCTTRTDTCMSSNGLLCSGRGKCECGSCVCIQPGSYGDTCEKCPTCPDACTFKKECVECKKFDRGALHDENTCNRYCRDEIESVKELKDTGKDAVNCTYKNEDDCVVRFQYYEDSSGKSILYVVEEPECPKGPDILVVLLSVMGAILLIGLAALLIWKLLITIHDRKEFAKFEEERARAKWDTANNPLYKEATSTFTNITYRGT
From the text: The binding of PAC1 monoclonal antibody and fibrinogen to gel-filtered human blood platelets was examined by fluorescence-activated flow cytometry using the procedures of Shattil et al., Blood, 70, 307-315 (1987). Venous blood from normal donors was drawn into 1/7 vol of NIH formula A acid-citrate-dextrose solution, platelet-rich plasma was obtained, and the platelets were gel-filtered into an isotonic HEPES-containing buffer at pH 7.4, as described in Shattil et al., Blood, 68, 1224-1231 (1986). To examine the effect of synthetic peptides on PAC1 binding to activated platelets, 5×10^7 platelets were incubated for 15 min at room temperature in a final vol of 50 μl in the presence of varying concentrations of (0-100 μM) of peptide, 40 μg/ml fluorescein-labeled PAC1 (FITC-PAC1 ), 10 μM ADP and 10 μM epinephrine. Then, 500 μl of the isotonic buffer was added and antibody binding was quantitated using a flow cytometer, as described in Shattil et al., Blood, 70, 307-315 (1987). Fibrinogen binding to platelets was measured using the same incubation system, except that 50 μg/ml of purified human fibrinogen as described in Bennett et al., J. Clin. Invest., 64, 1393-1400 (1979) was added and the monoclonal antibody, FITC-9F9, was used instead of FITC-PAC1. […] Abrams et al., Blood, 70, 335a (1987). […] Shattil et al., Blood 70, 307-315 (1987). The amount of platelet-bound FITC-PAC1 or FITC-9F9 was determined by analyzing 10,000 platelets for the extent of fluorescence at 488 nm, and binding expressed as the mean fluorescence intensity in arbitrary fluorescence units.

[2] = target: T2, blood platelet membrane fibrinogen receptor, glycoprotein IIb-IIIa (Homo sapiens, UniProt P05106+P08514); assay: Fibrinogen binding to activated gel-filtered platelets, measured with FITC-9F9 by flow cytometry; settings: 50 μg/ml fibrinogen
T2 construct: Venous blood from normal donors was drawn; endogenous in cells
T2 sequence (P08514 32-887 limits assumed): T1 sequence (P08514 32-887 limits assumed)
T2 sequence (P05106 27-788): T1 sequence (P05106 27-788)
From the text: The binding of PAC1 monoclonal antibody and fibrinogen to gel-filtered human blood platelets was examined by fluorescence-activated flow cytometry using the procedures of Shattil et al., Blood, 70, 307-315 (1987). Venous blood from normal donors was drawn into 1/7 vol of NIH formula A acid-citrate-dextrose solution, platelet-rich plasma was obtained, and the platelets were gel-filtered into an isotonic HEPES-containing buffer at pH 7.4, as described in Shattil et al., Blood, 68, 1224-1231 (1986). […] Then, 500 μl of the isotonic buffer was added and antibody binding was quantitated using a flow cytometer, as described in Shattil et al., Blood, 70, 307-315 (1987). Fibrinogen binding to platelets was measured using the same incubation system, except that 50 μg/ml of purified human fibrinogen as described in Bennett et al., J. Clin. Invest., 64, 1393-1400 (1979) was added and the monoclonal antibody, FITC-9F9, was used instead of FITC-PAC1. […] Previous studies have established that the amount of FITC-labeled antibody bound to platelets determined by flow cytometry is related in a linear fashion to the amount of antibody bound determined in a conventional radioligand binding assay. […]
The ability of Arg-Tyr-Asp-21mer to inhibit fibrinogen binding to activated platelets was also tested. Fibrinogen binding was assessed by flow cytometry using a FITC-labeled anti-fibrinogen monoclonal antibody, 9F9. […]

platelet glycoprotein Ib = target: T3, platelet glycoprotein Ib (Homo sapiens, UniProt P07359); assay: Binding of FITC-AP1 to resting platelets, flow cytometry
T3 construct: platelet glycoprotein Ib on resting platelets; endogenous in cells
T3 sequence (P07359 17-652): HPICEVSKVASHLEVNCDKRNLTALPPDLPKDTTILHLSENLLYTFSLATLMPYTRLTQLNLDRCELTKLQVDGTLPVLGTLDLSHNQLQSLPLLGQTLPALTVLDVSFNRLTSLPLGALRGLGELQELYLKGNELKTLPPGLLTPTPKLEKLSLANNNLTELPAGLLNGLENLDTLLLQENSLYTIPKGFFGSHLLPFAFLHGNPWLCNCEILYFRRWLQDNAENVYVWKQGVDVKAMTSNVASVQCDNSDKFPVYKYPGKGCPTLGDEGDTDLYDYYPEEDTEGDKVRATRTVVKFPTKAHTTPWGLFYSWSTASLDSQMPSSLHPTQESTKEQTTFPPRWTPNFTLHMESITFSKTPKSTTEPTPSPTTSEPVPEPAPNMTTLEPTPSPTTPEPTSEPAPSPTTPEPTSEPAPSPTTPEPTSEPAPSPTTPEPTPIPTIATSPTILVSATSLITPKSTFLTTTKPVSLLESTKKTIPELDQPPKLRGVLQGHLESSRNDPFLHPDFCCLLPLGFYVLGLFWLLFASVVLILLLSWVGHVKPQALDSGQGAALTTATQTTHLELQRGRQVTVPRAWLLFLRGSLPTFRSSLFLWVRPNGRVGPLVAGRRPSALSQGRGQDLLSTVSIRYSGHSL
T3 sequence (P13224 26-206 partner): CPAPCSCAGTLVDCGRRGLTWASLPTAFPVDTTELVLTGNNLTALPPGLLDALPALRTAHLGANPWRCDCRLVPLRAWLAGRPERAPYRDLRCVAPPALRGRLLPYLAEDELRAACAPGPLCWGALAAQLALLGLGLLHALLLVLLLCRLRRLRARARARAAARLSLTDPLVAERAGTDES
T3 sequence (P14770 17-177 partner): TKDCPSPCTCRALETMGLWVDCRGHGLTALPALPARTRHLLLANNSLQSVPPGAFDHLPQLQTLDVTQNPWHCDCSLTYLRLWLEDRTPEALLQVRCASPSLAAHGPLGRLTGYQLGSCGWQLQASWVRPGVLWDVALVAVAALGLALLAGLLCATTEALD
Method: (§1) Gel-filtered platelets were incubated in the presence of Arg-Tyr-Asp-21mer and various FITC-labeled anti-platelet monoclonal antibodies. Monoclonal antibody binding was determined by flow cytometry. In the case of antibody AP1 (specific for platelet glycoprotein Ib) (unfilled circles), the platelets were not activated. In the case of antibodies PAC1 (specific for activated glycoproteins IIb-IIIa) (filled circles), BIB5 (specific for glycoprotein IIb) (filled squares) and S12 (specific for GMP-140) (unfilled triangles), the platelets were activated with ADP and epinephrine (10 μM each). The data shown are from a single experiment representative of two runs performed as described.
(§2) The binding of PAC1 monoclonal antibody and fibrinogen to gel-filtered human blood platelets was examined by fluorescence-activated flow cytometry using the procedures of Shattil et al., Blood, 70, 307-315 (1987). […] Then, 500 μl of the isotonic buffer was added and antibody binding was quantitated using a flow cytometer, as described in Shattil et al., Blood, 70, 307-315 (1987). Fibrinogen binding to platelets was measured using the same incubation system, except that 50 μg/ml of purified human fibrinogen as described in Bennett et al., J. Clin. Invest., 64, 1393-1400 (1979) was added and the monoclonal antibody, FITC-9F9, was used instead of FITC-PAC1. […]

glycoprotein IIb = target: T4, glycoprotein IIb (Homo sapiens, UniProt P08514); assay: Binding of FITC-B1B5 to activated platelets, flow cytometry; settings: activated platelets (ADP and epinephrine, 10 μM each)
T4 construct: endogenous in cells
T4 sequence (P08514 32-887 limits assumed): T1 sequence (P08514 32-887 limits assumed)
Method: as §1, §2

GMP-140 = target: T5, GMP-140 (Homo sapiens, UniProt P16109); assay: Binding of FITC-S12 to activated platelets, flow cytometry; settings: activated platelets (ADP and epinephrine, 10 μM each)
T5 construct: endogenous in cells
T5 sequence (P16109 42-830): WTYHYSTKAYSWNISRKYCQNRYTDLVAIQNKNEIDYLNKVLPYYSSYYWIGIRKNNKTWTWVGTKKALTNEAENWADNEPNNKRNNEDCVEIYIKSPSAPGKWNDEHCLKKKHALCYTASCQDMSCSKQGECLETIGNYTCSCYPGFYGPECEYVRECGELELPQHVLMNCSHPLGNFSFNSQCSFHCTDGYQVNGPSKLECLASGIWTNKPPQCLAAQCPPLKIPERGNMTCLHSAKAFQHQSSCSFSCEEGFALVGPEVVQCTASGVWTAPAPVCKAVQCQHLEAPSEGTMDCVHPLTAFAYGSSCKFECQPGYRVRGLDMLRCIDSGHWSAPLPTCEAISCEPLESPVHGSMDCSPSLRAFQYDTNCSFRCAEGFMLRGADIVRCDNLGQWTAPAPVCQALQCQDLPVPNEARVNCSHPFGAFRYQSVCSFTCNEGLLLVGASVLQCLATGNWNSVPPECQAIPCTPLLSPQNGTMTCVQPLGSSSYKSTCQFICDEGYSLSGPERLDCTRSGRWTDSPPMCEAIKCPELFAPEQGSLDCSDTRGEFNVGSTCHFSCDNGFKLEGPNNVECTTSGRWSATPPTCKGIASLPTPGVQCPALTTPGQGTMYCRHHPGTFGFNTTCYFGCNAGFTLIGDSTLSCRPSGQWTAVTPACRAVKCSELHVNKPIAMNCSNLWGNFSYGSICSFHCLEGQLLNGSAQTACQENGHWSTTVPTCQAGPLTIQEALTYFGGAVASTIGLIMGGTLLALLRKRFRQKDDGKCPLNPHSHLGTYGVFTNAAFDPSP
Method: as §1, §2

| Ki ([1]; Dixon plot analysis, five separate experiments, ±SE, read-out: apparent Ki for inhibition of PAC1 binding) [µM] | IC50 ([1]; platelets activated with 10 μM ADP and 10 μM epinephrine, 40 μg/ml FITC-PAC1, 15 min, room temperature, read-out: IC50 for inhibition of the binding of FITC-PAC1 to platelets) [µM] | effect on FITC-PAC1 binding [1] | Ki ([2]; Dixon plot analysis, three experiments, ADP plus epinephrine, read-out: apparent Ki for inhibition of fibrinogen binding) [µM] | effect on the binding of FITC-AP1 to platelet glycoprotein Ib (platelet glycoprotein Ib) | effect on the binding of FITC-B1B5 to glycoprotein IIb (glycoprotein IIb) | effect on the binding of FITC-S12 to GMP-140 (GMP-140) | effect on 9F9 binding (fibrinogen binding) ([2]; platelets activated with ADP plus epinephrine) | Substance |
| --- | --- | --- | --- | --- | --- | --- | --- | --- |
| 10.2 ± 4.3 | 20 to 30 | marked effect | 5.5 ± 3.5 | no effect | no effect | no effect |  | ARRSPSYYRYDGAGPYYAMDY [Arg-Tyr-Asp-21mer] |
|  |  | no effect |  |  |  |  | no effect | NH2 -Tyr-Val-Asp-Gly-Asp-Gln-Cys-(Acm)-Glu-Ser-Asn-Pro-Cys-Leu-Asn-Gly-Gly-Met(O)-Cys-(Acm)-Lys-Asp-Asp-Ile-Asn-Ser-Tyr-Gly-Cys-Phe-COOH [unrelated-28mer, reference compound] |
